Data set [1] is described as follows: Agilent ZORBAX Eclipse Plus C18, 100 × 2.1 mm, 1.8 µm, 25 °C, 0.3 mL/min, estimated dead time 0.73 min; A: water + 0.1% acetic acid; B: methanol; gradient (min/%B) 0/5 6/20 13/35 18/50 24/65 30/90 40/90. Conditions: stereoisomer not certain.
A short description of data set [2]: RP, Thermo Scientific Accucore C18, 150 × 2.1 mm, 2.6 µm, 24 °C, 0.28 mL/min, estimated dead time 0.83 min; A: 90% water + 10% acetonitrile + 10 mM ammonium acetate; B: 20% water + 80% methanol + 10 mM ammonium acetate; gradient (min/%B) 0/0 2.5/0 7.5/30 12.5/30 15/40 20/100 27.5/100. Conditions: stereoisomer not certain.

Take `Nc1ncnc2c1ncn2C1OC(CO)C(O)C1O` (configuration not stated): the LC retention time in data set [1] was 5.25 min.
The same measure, in the same setting: in the case of `O=c1cc[nH]c(=O)[nH]1` it was 4.2 min; in that of `NC(Cc1c[nH]c2ccccc12)C(=O)O` (configuration not stated), 9.7 min.
On the same count and under the same terms, in the case of `O=C(O)c1cccnc1` it was 3.34 min; in that of `COc1cc(C=CC(=O)O)ccc1O`, 11.5 min; in that of `O=C(O)c1ccc(O)c(O)c1`, 7.74 min.
The same measure, in the same setting: in the case of `C[N+](C)(C)CCO` it was 2.08 min; in that of `CC(C)(O)C1CCC(C)(C2C(O)CC3(C)C4CC(OC5OC(CO)C(O)C(O)C5O)C5C(C)(C)C(OC6OCC(O)C(O)C6O)CCC56CC46CCC23C)O1` (configuration not stated), 32.2 min.
For `CC(C)CC(N)C(=O)O` (configuration not stated), the LC retention time in data set [1] is 5.02 min.
The same measure, in the same setting: in the case of `O=Cc1ccc(CO)o1` it was 7.09 min.
`NC(Cc1ccccc1)C(=O)O` (configuration not stated): the LC retention time in data set [1] was 7.22 min.
Same read-out and setting: in the case of `COc1ccc(-c2coc3cc(OC4OC(CO)C(O)C(O)C4O)ccc3c2=O)cc1O` (configuration not stated) it was 17.6 min; in that of `Nc1ncnc2nc[nH]c12`, 2.73 min; in that of `C=C1CCCC2(C)CC3(O)OC(=O)C(C)=C3CC12` (configuration not stated), 30.1 min.
Same read-out and setting: in the case of `COc1cc(C(=O)O)cc(OC)c1O` it was 9.87 min; in that of `NC(=O)CC(N)C(=O)O` (configuration not stated), 2.11 min.
On the same count and under the same terms, next, `C[n+]1cccc(C(=O)[O-])c1`: 2.21 min.
As for `CC12C=CC(=O)C=C1CCC1C2C(=O)CC2(C)C1CCC2(O)C(=O)CO` (configuration not stated), the LC retention time in data set [2] was 9.4 min.
On the same count and under the same terms, next, `Cc1ccc(C)c(OCCCC(C)(C)C(=O)O)c1`: 17.9 min; `CCCCNc1cc(C(=O)O)cc(S(N)(=O)=O)c1Oc1ccccc1`: 9.25 min.
In the case of `OCC1OC(OC2(CO)OC(CO)C(O)C2O)C(O)C(O)C1O` (configuration not stated), the LC retention time in data set [1] is 2.4 min.
For `NC(Cc1ccc(O)cc1)C(=O)O` (configuration not stated), in data set [1], the LC retention time is 4.31 min.
For the compound `CC(Cc1ccccc1)NCCC#N` (configuration not stated), the LC retention time in data set [2] was 8.95 min.
Still for that read-out and setting: in the case of `CC(Cc1ccccc1)N(C)Cc1ccco1` (configuration not stated) it was 14.8 min.
Regarding `O=C(C=Cc1ccc(O)c(O)c1)OC1CC(O)(C(=O)O)CC(O)C1O` (configuration not stated), the LC retention time in data set [1] was 8.99 min.
As for `CC(C)(C)NCC(O)COc1cccc2c1CCCC2=O` (configuration not stated), the LC retention time in data set [2] was 7.63 min.
Same read-out and setting: in the case of `CN(C)C(=O)Oc1cc(OC(=O)N(C)C)cc(C(O)CNC(C)(C)C)c1` (configuration not stated) it was 8.28 min; in that of `COc1ccc2c3c1OC1C(O)C=CC4C(C2)N(C)CCC341` (configuration not stated), 4.48 min; in that of `C#CC1(O)CCC2C3CCC4=CC(=O)CCC4=C3C=CC21CC` (configuration not stated), 17.5 min.
The same measure, in the same setting: in the case of `CC12CCC(=O)C=C1CCC1C2C(=O)CC2(C)C1CCC2(O)C(=O)CO` (configuration not stated) it was 9.34 min; in that of `CNC(C)C(O)c1ccccc1` (configuration not stated), 2.75 min.
Still for that read-out and setting: next, `CCN(CC)C(=O)c1cccnc1`: 5.49 min.
Consider `COC(=O)C1=COC(OC2OC(CO)C(O)C(O)C2O)C2C(CO)=CCC12` (configuration not stated), for which the LC retention time in data set [1] was 13.9 min.
As to `CCC(=C(c1ccccc1)c1ccc(OCCN(C)C)cc1)c1ccccc1`, the LC retention time in data set [2] was 21.2 min.
In the case of `O=c1cc(-c2ccc(O)cc2)oc2cc(OC3OC(CO)C(O)C(O)C3O)cc(O)c12` (configuration not stated), in data set [1], the LC retention time is 18.2 min.
Consider `COC(=O)CCc1ccc(OCC(O)CNC(C)C)cc1` (configuration not stated), for which the LC retention time in data set [2] was 8.1 min.
For `CC1(C)OC2CC3C4CCC5=CC(=O)C=CC5(C)C4C(O)CC3(C)C2(C(=O)CO)O1` (configuration not stated), the LC retention time in data set [2] was 12.7 min.
The same measure, in the same setting: in the case of `CC(C)(N)Cc1ccccc1` it was 4.37 min.
As to `Cc1cccc(Nc2ccccc2C(=O)O)c1C`, the LC retention time in data set [2] was 13 min.
Same read-out and setting: next, `CC(Cc1ccccc1)NCCn1cnc2c1c(=O)n(C)c(=O)n2C` (configuration not stated): 8.9 min; `COc1ccc2c(c1)C13CCCCC1C(C2)N(C)CC3` (configuration not stated): 11 min.
On the same count and under the same terms, in the case of `NC(CC(O)COc1cccc2ccccc12)=NO` (configuration not stated) it was 9.66 min.
Take `NC(N)=NCCCC(N)C(=O)O` (configuration not stated): the LC retention time in data set [1] is 2.05 min.
As to `CC(Cc1ccccc1)N(C)Cc1ccccc1` (configuration not stated), the LC retention time in data set [2] is 17.8 min.
On the same count and under the same terms, next, `N=C1NC(=O)C(c2ccccc2)O1` (configuration not stated): 3.65 min.
The same measure, in the same setting: in the case of `CN(C)CCC=C1c2ccccc2CCc2ccccc21` it was 17.2 min; in that of `Cc1ccccc1CC(C)N` (configuration not stated), 6.42 min.
With `CNC(C)CCC=C(C)C` (configuration not stated), the LC retention time in data set [2] is 7.13 min.
On the same count and under the same terms, next, `Nc1nc(N)c2nc(-c3ccccc3)c(N)nc2n1`: 6.51 min; `COC12CCC3(CC1C(C)(O)C(C)(C)C)C1Cc4ccc(O)c5c4C3(CCN1CC1CC1)C2O5` (configuration not stated): 22.2 min; `C=CCc1ccccc1OCC(O)CNC(C)C` (configuration not stated): 10.1 min.
Consider `CC(N)C(=O)c1ccccc1` (configuration not stated), for which, in data set [2], the LC retention time was 8.59 min.
`CC12C=CC(=O)C=C1CCC1C2C(O)CC2(C)C1CCC2(O)C(=O)CO` (configuration not stated): in data set [2], the LC retention time was 9.34 min.
The same measure, in the same setting: in the case of `COc1cccc(C2(O)CCCCC2CN(C)C)c1` (configuration not stated) it was 7.44 min; in that of `CNC(C)C(=O)c1ccc(C)cc1` (configuration not stated), 6.27 min; in that of `CCNC1C2CCC(C2)C1c1ccccc1` (configuration not stated), 9.1 min.
Same read-out and setting: next, `COCCc1ccc(OCC(O)CNC(C)C)cc1` (configuration not stated): 7.33 min; `COc1ccccc1OCCNCC(O)COc1cccc2[nH]c3ccccc3c12` (configuration not stated): 15.4 min.
Turning to `CNC(C)C(=O)c1ccc2c(c1)OCO2` (configuration not stated), the LC retention time in data set [2] is 3.44 min.
Same read-out and setting: next, `CC(C)NCC(O)COc1cccc2[nH]ccc12` (configuration not stated): 5.15 min; `CC(C)c1c(CN(C)C(C)Cc2ccccc2)n(C)n(-c2ccccc2)c1=O` (configuration not stated): 21.3 min; `CC(C)NCC(O)COc1cccc2ccccc12` (configuration not stated): 9.86 min.
The same measure, in the same setting: in the case of `CC(=O)OCC(=O)C12N=C(C)OC1CC1C3CCC4=CC(=O)C=CC4(C)C3C(O)CC12C` (configuration not stated) it was 15.7 min; in that of `C#CCN(C)C(C)Cc1ccccc1` (configuration not stated), 15.1 min; in that of `C#CC1(O)CCC2C3C(C)CC4=C(CCC(=O)C4)C3CCC21C` (configuration not stated), 18.6 min.
Same read-out and setting: next, `CC1NCCOC1c1ccccc1` (configuration not stated): 4.89 min.
As for `CCN(CC)C(=O)Nc1ccc(OCC(O)CNC(C)(C)C)c(C(C)=O)c1` (configuration not stated), the LC retention time in data set [2] was 8.15 min.
The same measure, in the same setting: in the case of `CC(N)Cc1ccccc1` (configuration not stated) it was 3.77 min; in that of `CC(=O)CC(c1ccccc1)c1c(O)c2ccccc2oc1=O` (configuration not stated), 9.01 min; in that of `CNC(C)Cc1ccccc1` (configuration not stated), 4.66 min.
With `CC(C)NCC(O)COc1ccc(CCOCC2CC2)cc1` (configuration not stated), the LC retention time in data set [2] is 10.2 min.
Same read-out and setting: in the case of `CC(=O)Oc1c(C)cc(OCC(O)CNC(C)C)c(C)c1C` (configuration not stated) it was 9.53 min; in that of `CC(N)Cc1ccc2c(c1)OCO2` (configuration not stated), 4.23 min.
On the same count and under the same terms, next, `CC1CC2C(C(O)CC3(C)C2CCC3(O)C(=O)CO)C2(C)C=CC(=O)C=C12` (configuration not stated): 11 min.
On the same count and under the same terms, in the case of `CCNC(C)C(=O)c1ccc(C)cc1` (configuration not stated) it was 6.99 min; in that of `C=CCOc1ccccc1OCC(O)CNC(C)C` (configuration not stated), 8.57 min.
Consider `COC(=O)C1=C(C)NC(C)=C(C(=O)OC)C1c1ccccc1[N+](=O)[O-]`, for which the LC retention time in data set [2] is 17.2 min.

Values taken from the RepoRT retention time repository (doi:10.1016/j.chroma.2015.03.063).
